Measured values as given in patent US7009045B2 (priority 2000, dated 2006).

Test system: Candida famata regulatory mutants able to overproduce riboflavin
Assay: Sensitivity to K2Cr2O7, solid Burkholder medium with 0.5% glycerol (Table 14)
Assay type: cell-based
Design: key: +++: strong growth; ++: weak growth; —: absence of growth
Experimental: The sensitivity of the regulatory mutants of the yeast C. famata which overproduce riboflavin in iron rich medium probably due to defects in genes regulating repression (repression mutants), to different ions of heavy metals was studied. For this, the analyzed strains were streaked on the YPD plates and then were replica-plated on Burkholder synthetic medium containing leucine (40 μg/ml). The C.famata mutants L20105-40-1-11, L20105-40-1-17, L20105-3-2-1, L20105-3-2-8 and L20105-3-2-12 (all contained leu2 marker) accumulated 80–100 μg riboflavin/ml. The mutants #75, 4-48, 2-5 produced much higher amounts of riboflavin (200–250 μg/ml) but were prototrophs for leucine synthesis. Strain #75 was characterized by retarded growth comparing with other mutants. The strains VKM Y-9 (wild type) and L20105 (leu2) were used as the control strains.

Compound: [K+].[K+].[O]=[Cr](=[O])([O-])[O][Cr](=[O])(=[O])[O-] [K2Cr2O7]
- growth (#2-5, K2Cr2O7 25 μM): +++
- growth (#2-5, K2Cr2O7 30 μM): +++
- growth (#2-5, K2Cr2O7 35 μM): +++
- growth (#2-5, K2Cr2O7 40 μM): +++
- growth (#2-5, K2Cr2O7 45 μM): +++
- growth (#2-5, K2Cr2O7 55 μM): ++
- growth (#2-5, K2Cr2O7 85 μM): —
- growth (#2-5, K2Cr2O7 100 μM): —
- growth (#2-5, K2Cr2O7 125 μM): —
- growth (#2-5, K2Cr2O7 150 μM): —
- growth (#4-48, K2Cr2O7 25 μM): +++
- growth (#4-48, K2Cr2O7 30 μM): +++
- growth (#4-48, K2Cr2O7 35 μM): +++
- growth (#4-48, K2Cr2O7 40 μM): +++
- growth (#4-48, K2Cr2O7 45 μM): +++
- growth (#4-48, K2Cr2O7 55 μM): ++
- growth (#4-48, K2Cr2O7 65 μM): —
- growth (#4-48, K2Cr2O7 70 μM): —
- growth (#4-48, K2Cr2O7 75 μM): —
- growth (#4-48, K2Cr2O7 85 μM): —
- growth (#4-48, K2Cr2O7 100 μM): —
- growth (#4-48, K2Cr2O7 125 μM): —
- growth (#4-48, K2Cr2O7 150 μM): —
- growth (#75, K2Cr2O7 25 μM): +++
- growth (#75, K2Cr2O7 30 μM): +++
- growth (#75, K2Cr2O7 35 μM): +++
- growth (#75, K2Cr2O7 45 μM): ++
- growth (#75, K2Cr2O7 55 μM): ++
- growth (#75, K2Cr2O7 65 μM): —
- growth (#75, K2Cr2O7 70 μM): —
- growth (#75, K2Cr2O7 75 μM): —
- growth (#75, K2Cr2O7 85 μM): —
- growth (#75, K2Cr2O7 100 μM): —
- growth (#75, K2Cr2O7 125 μM): —
- growth (#75, K2Cr2O7 150 μM): —
- growth (L20105 (leu2), K2Cr2O7 25 μM): +++
- growth (L20105 (leu2), K2Cr2O7 30 μM): +++
- growth (L20105 (leu2), K2Cr2O7 35 μM): +++
- growth (L20105 (leu2), K2Cr2O7 40 μM): +++
- growth (L20105 (leu2), K2Cr2O7 45 μM): +++
- growth (L20105 (leu2), K2Cr2O7 50 μM): +++
- growth (L20105 (leu2), K2Cr2O7 55 μM): +++
- growth (L20105 (leu2), K2Cr2O7 60 μM): +++
- growth (L20105 (leu2), K2Cr2O7 65 μM): ++
- growth (L20105 (leu2), K2Cr2O7 70 μM): ++
- growth (L20105 (leu2), K2Cr2O7 75 μM): ++
- growth (L20105 (leu2), K2Cr2O7 85 μM): ++
- growth (L20105 (leu2), K2Cr2O7 100 μM): ++
- growth (L20105 (leu2), K2Cr2O7 125 μM): —
- growth (L20105 (leu2), K2Cr2O7 150 μM): —
- growth (L20105-3-2-4, K2Cr2O7 25 μM): +++
- growth (L20105-3-2-4, K2Cr2O7 45 μM): —
- growth (L20105-3-2-4, K2Cr2O7 50 μM): —
- growth (L20105-3-2-4, K2Cr2O7 55 μM): —
- growth (L20105-3-2-4, K2Cr2O7 60 μM): —
- growth (L20105-3-2-4, K2Cr2O7 65 μM): —
- growth (L20105-3-2-4, K2Cr2O7 70 μM): —
- growth (L20105-3-2-4, K2Cr2O7 85 μM): —
- growth (L20105-3-2-4, K2Cr2O7 100 μM): —
- growth (L20105-3-2-4, K2Cr2O7 125 μM): —
- growth (L20105-3-2-4, K2Cr2O7 150 μM): —
- growth (L20105-3-2-8, K2Cr2O7 25 μM): +++
- growth (L20105-3-2-8, K2Cr2O7 45 μM): —
- growth (L20105-3-2-8, K2Cr2O7 50 μM): —
- growth (L20105-3-2-8, K2Cr2O7 55 μM): —
- growth (L20105-3-2-8, K2Cr2O7 60 μM): —
- growth (L20105-3-2-8, K2Cr2O7 65 μM): —
- growth (L20105-3-2-8, K2Cr2O7 70 μM): —
- growth (L20105-3-2-8, K2Cr2O7 75 μM): —
- growth (L20105-3-2-8, K2Cr2O7 85 μM): —
- growth (L20105-3-2-8, K2Cr2O7 100 μM): —
- growth (L20105-3-2-8, K2Cr2O7 125 μM): —
- growth (L20105-3-2-8, K2Cr2O7 150 μM): —
- growth (L20105-3-2-12, K2Cr2O7 25 μM): +++
- growth (L20105-3-2-12, K2Cr2O7 45 μM): —
- growth (L20105-3-2-12, K2Cr2O7 50 μM): —
- growth (L20105-3-2-12, K2Cr2O7 55 μM): —
- growth (L20105-3-2-12, K2Cr2O7 60 μM): —
- growth (L20105-3-2-12, K2Cr2O7 65 μM): —
- growth (L20105-3-2-12, K2Cr2O7 70 μM): —
- growth (L20105-3-2-12, K2Cr2O7 75 μM): —
- growth (L20105-3-2-12, K2Cr2O7 85 μM): —
- growth (L20105-3-2-12, K2Cr2O7 100 μM): —
- growth (L20105-3-2-12, K2Cr2O7 125 μM): —
- growth (L20105-3-2-12, K2Cr2O7 150 μM): —
- growth (VKM Y-9, K2Cr2O7 65 μM): +++
- growth (VKM Y-9, K2Cr2O7 70 μM): +++
- growth (VKM Y-9, K2Cr2O7 75 μM): +++
- growth (VKM Y-9, K2Cr2O7 85 μM): +++
- growth (VKM Y-9, K2Cr2O7 100 μM): +++
- growth (VKM Y-9, K2Cr2O7 125 μM): ++
